In patent publication US5612329A (priority 1995, dated 1997):

How the values were obtained:
SW-620 cells = assay: In vitro cytotoxicity / cell growth inhibition, colon cancer; type: cell-based; settings: Homo sapiens; SW-620, colon cancer, 48 hr; read-out: log10 G150 (converted)
Protocol: (§1) The anti-proliferative activities of the aziridinylpolyamines obtained in Synthesis Examples 1-4 were assessed by determining log10 G150 values against human cancer cell lines using the screening strategy described by Boyd et al, Drug Devel. Res. 34:91-109 (1995).
(§2) More specifically, the compounds were tested at a minimum of five concentrations at 10-fold dilutions using a 48 hr continuous exposure protocol. Each cell line shown in Table 1 below was inoculated onto microtiter plates. After a pre-incubation period of 24-48 hr at 37° C., the test compounds were added, and the culture was incubated for an additional 48 hr at 37° C. Cell viability or cell growth end-point determinations were performed by fixation of the cells, followed by staining with sulforhodamine B (Monks et al, J. Natl. Cancer Inst., 83:757-766 (1991)).

HCC-2998 cells = assay: as above; type: cell-based; settings: Homo sapiens; HCC-2998, colon cancer, 48 hr; read-out: log10 G150 (converted)
Protocol: as §1, §2

HCT-15 cells = assay: as above; type: cell-based; settings: Homo sapiens; HCT-15, colon cancer, 48 hr; read-out: log10 G150 (converted)
Protocol: as §1, §2

HT29 cells = assay: as above; type: cell-based; settings: Homo sapiens, HT-29, 48 hr, read-out: log10 G150 (converted)
Protocol: as §1, §2

KM12 cells = assay: as above; type: cell-based; settings: Homo sapiens, 48 hr, read-out: log10 G150 (converted)
Protocol: as §1, §2

COLO 205 cells = assay: as above; type: cell-based; settings: Homo sapiens; COLO 205, colon cancer, 48 hr; read-out: log10 G150 (converted)
Protocol: as §1, §2

HCT-116 cells = assay: as above; type: cell-based; settings: Homo sapiens; HCT-116, colon cancer, 48 hr; read-out: log10 G150 (converted)
Protocol: as §1, §2

L1210 murine leukemia = assay: In vivo testing in mice bearing L1210 leukemia; parameters: species or system female CD2 F1 mice; settings: for LD20: footnote e
From the text: Virus-free, adult female CD2 F1 mice were obtained from the Animal Genetics and Production Branch of the National Cancer Institute. To minimize exogenous infection, mice were housed in microisolator caging and handled in accordance with the NIH Guide for the care and use of laboratory animals (NIH No. 85-23, 1985). The mice were randomized to groups of 5 mice per group, except titration groups which consisted of 10 mice per group, and the untreated control group which consisted of 20 mice.
On day 0, the mice were inoculated intraperitoneally with 1.0×10^5 L1210 mouse leukemia cells/mouse for the treatment and control groups. The titration groups received 1.0×10^4 to 1.0×10^6 L1210 cells/mouse.
Dosing solutions were freshly prepared just prior to treatment by dissolving 1,12-diaziridinyl-4,9-diazadodecane in 25 mM sodium phosphate buffer (pH 7.4), giving concentrations of 0.18-0.6 mg/ml.
Beginning on day 1, dosing solutions were administered intravenously by tail vein at 0.01 ml/g of body weight. The doses of 1,12-diaziridinyl-4,9-diazadodecane were 6.0, 4.0, 2.7, and 1.8 mg/kg. The dosing schedule was: a single dose on day 1; 3 doses every four days beginning on day 1; 2 doses every seven days beginning on day 1; or 2 doses on days 1 and 2.
Percent increase in lifespan was calculated using the formula, (T-C/C)·100, where T is the median day of death for the various treatment groups, and C is the median day of death for the control group.
The net log cell kill is an estimate of the number of cells that are killed by the drug at each specific dose and schedule, and was calculated by the formula, ((T-C)-Duration of Treatment)·0.3/Tumor Doubling Time.

HL-60 (TB) cells = assay: cells; type: cell-based; settings: Homo sapiens, leukemia, 48 hr, read-out: log10 G150 (converted)
NCl-H23 cells = assay: In vitro cytotoxicity / cell growth inhibition, non-small cell lung cancer; type: cell-based; settings: Homo sapiens, 48 hr, read-out: log10 G150 (converted)
Protocol: as §1, §2

HOP-62 cells = assay: as above; type: cell-based; settings: Homo sapiens; HOP-62, non-small cell lung cancer, 48 hr; read-out: log10 G150 (converted)
Protocol: as §1, §2

A549/ATCC cells = assay: as above; type: cell-based; settings: Homo sapiens, 48 hr, read-out: log10 G150 (converted)
Protocol: as §1, §2

HOP-92 cells = assay: as above; type: cell-based; settings: Homo sapiens; HOP-92, non-small cell lung cancer, 48 hr; read-out: log10 G150 (converted)
Protocol: as §1, §2

NCl-H322M cells = assay: as above; type: cell-based; settings: Homo sapiens, 48 hr, read-out: log10 G150 (converted)
Protocol: as §1, §2

NCl-H226 cells = assay: as above; type: cell-based; settings: Homo sapiens, 48 hr, read-out: log10 G150 (converted)
Protocol: as §1, §2

NCl-H460 cells = assay: as above; type: cell-based; settings: Homo sapiens, 48 hr, read-out: log10 G150 (converted)
Protocol: as §1, §2

NCl-H522 cells = assay: as above; type: cell-based; settings: Homo sapiens, 48 hr, read-out: log10 G150 (converted)
Protocol: as §1, §2

EKVX cells = assay: as above; type: cell-based; settings: Homo sapiens, 48 hr, read-out: log10 G150 (converted)
Protocol: as §1, §2

## C(CCNCCCN1CC1)CNCCCN1CC1 [Synthesis Example 1, 1,12-Diaziridinyl-4,9-diazadodecane]
SW-620 cells
  GI50: 2630 nM
HCC-2998 cells
  GI50: 1820 nM
HCT-15 cells
  GI50: 11500 nM
HT29 cells
  GI50: 3630 nM
KM12 cells
  GI50: 15500 nM
COLO 205 cells
  GI50: 407 nM
HCT-116 cells
  GI50: 1260 nM
L1210 murine leukemia; 1.8 mg/kg i.v. on day 1
  Net log cell kill (NLCK): 4
  Percent increase in life span (% ILS): 57%
  Survival (median day of death): 11 days
L1210 murine leukemia; 1.8 mg/kg i.v. on days 1, 2
  Net log cell kill (NLCK): 6
  Percent increase in life span (% ILS): 100%
  Survival (median day of death): 14 days
L1210 murine leukemia; 1.8 mg/kg i.v. on days 1, 5, 9
  Net log cell kill (NLCK): 2
  Percent increase in life span (% ILS): 143%
  Survival (median day of death): 17 days
L1210 murine leukemia; 1.8 mg/kg i.v. on days 1, 8
  Net log cell kill (NLCK): -1
  Percent increase in life span (% ILS): 86%
  Survival (median day of death): 13 days
L1210 murine leukemia; 2.7 mg/kg i.v. on day 1
  Net log cell kill (NLCK): 3
  Percent increase in life span (% ILS): 42%
  Survival (median day of death): 10 days
L1210 murine leukemia; 2.7 mg/kg i.v. on days 1, 2
  Net log cell kill (NLCK): 6
  Percent increase in life span (% ILS): 100%
  Survival (median day of death): 14 days
L1210 murine leukemia; 2.7 mg/kg i.v. on days 1, 5, 9
  Net log cell kill (NLCK): 4
  Percent increase in life span (% ILS): 171%
  Survival (median day of death): 19 days
L1210 murine leukemia; 2.7 mg/kg i.v. on days 1, 8
  Net log cell kill (NLCK): 2
  Percent increase in life span (% ILS): 129%
  Survival (median day of death): 16 days
L1210 murine leukemia; 4.0 mg/kg i.v. on day 1
  Net log cell kill (NLCK): 4
  Percent increase in life span (% ILS): 57%
  Survival (median day of death): 11 days
L1210 murine leukemia; 4.0 mg/kg i.v. on days 1, 2
  Net log cell kill (NLCK): -3
  Percent increase in life span (% ILS): -29%
  Survival (median day of death): 5 days
L1210 murine leukemia; 4.0 mg/kg i.v. on days 1, 5, 9
  Net log cell kill (NLCK): -7
  Percent increase in life span (% ILS): 14%
  Survival (median day of death): 8 days
L1210 murine leukemia; 4.0 mg/kg i.v. on days 1, 8
  Net log cell kill (NLCK): 4
  Percent increase in life span (% ILS): 157%
  Survival (median day of death): 18 days
L1210 murine leukemia; 6.0 mg/kg i.v. on day 1
  Net log cell kill (NLCK): -1
  Percent increase in life span (% ILS): -14%
  Survival (median day of death): 6 days
L1210 murine leukemia; i.v. on day 1
  LD20: 4.0 mg/kg
L1210 murine leukemia; i.v. on days 1, 2
  LD20: 2.7 mg/kg
L1210 murine leukemia; i.v. on days 1, 2, footnote f
  LD100: 4.0 mg/kg
L1210 murine leukemia; i.v. on days 1, 5, 9
  LD20: 4.0 mg/kg
L1210 murine leukemia; i.v. on days 1, 8
  LD20: 4.0 mg/kg
L1210 murine leukemia; i.v., doses of less than 2.7 mg/kg, days 1, 5, and 9
  increase in the life span: significant increase in the life span
HL-60 (TB) cells
  GI50: 35.5 nM
NCl-H23 cells
  GI50: 263 nM
HOP-62 cells
  GI50: 58.9 nM
A549/ATCC cells
  GI50: 891 nM
HOP-92 cells
  GI50: 219 nM
NCl-H322M cells
  GI50: 4570 nM
NCl-H226 cells
  GI50: 724 nM
NCl-H460 cells
  GI50: 363 nM
NCl-H522 cells
  GI50: 427 nM
EKVX cells
  GI50: 3470 nM
